# Columns and labels:
# Type in all cases: binding
# [1] = target: CYP142 (Rv3518c, CYP142A1) (Mycobacterium tuberculosis, UniProt P9WPL5); test: biochemical
# [2] = target: T1, CYP124 (Rv2266, CYP124A1) (Mycobacterium tuberculosis, UniProt P9WPP3); test: […] Å co-crystal structure; […]; LC-MS turnover
# T1 sequence (P9WPP3 1-428): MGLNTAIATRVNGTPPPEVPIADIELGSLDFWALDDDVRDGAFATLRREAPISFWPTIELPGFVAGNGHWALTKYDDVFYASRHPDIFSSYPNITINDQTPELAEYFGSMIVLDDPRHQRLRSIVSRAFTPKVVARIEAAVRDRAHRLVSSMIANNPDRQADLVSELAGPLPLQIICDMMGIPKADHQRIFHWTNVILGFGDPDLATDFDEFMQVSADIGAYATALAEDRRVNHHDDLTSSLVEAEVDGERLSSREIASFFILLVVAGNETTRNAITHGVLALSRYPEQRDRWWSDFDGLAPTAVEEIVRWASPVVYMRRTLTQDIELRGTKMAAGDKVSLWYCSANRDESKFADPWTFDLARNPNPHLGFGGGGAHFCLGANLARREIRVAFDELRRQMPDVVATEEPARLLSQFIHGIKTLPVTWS
# [3] = target: T2, CYP125 (Rv3545c, CYP125A1) (Mycobacterium tuberculosis, UniProt P9WPP1); test: biochemical
# T2 sequence (P9WPP1 1-433): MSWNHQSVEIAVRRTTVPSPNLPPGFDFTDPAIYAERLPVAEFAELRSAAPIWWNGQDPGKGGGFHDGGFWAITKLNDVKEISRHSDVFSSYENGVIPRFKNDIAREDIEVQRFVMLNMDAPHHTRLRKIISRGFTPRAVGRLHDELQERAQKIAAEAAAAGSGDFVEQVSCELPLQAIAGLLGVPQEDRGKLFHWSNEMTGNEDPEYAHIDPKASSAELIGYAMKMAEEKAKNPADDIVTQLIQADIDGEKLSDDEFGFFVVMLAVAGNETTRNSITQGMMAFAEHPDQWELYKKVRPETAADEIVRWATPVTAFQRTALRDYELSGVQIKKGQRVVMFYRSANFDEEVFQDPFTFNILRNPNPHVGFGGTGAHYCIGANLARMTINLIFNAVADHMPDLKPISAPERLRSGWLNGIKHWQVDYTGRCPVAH
# Sequence of CYP142 (Rv3518c, CYP142A1) (P9WPL5 whole entry): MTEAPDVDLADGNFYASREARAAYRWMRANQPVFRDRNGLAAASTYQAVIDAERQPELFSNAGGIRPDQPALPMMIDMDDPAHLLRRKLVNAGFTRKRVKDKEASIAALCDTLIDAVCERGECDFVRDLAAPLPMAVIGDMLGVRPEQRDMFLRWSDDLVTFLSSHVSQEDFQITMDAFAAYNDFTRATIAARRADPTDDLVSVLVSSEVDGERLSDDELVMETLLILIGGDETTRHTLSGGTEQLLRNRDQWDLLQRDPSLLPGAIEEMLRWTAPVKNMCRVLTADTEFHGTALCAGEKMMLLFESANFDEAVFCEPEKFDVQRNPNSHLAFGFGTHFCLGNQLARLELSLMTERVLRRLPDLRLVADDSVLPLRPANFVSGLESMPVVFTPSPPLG
structure (smiles),measurement,setting,value
CC(C)=CCC/C(C)=C\CNCCNC1C2CC3CC(C2)CC1C3 (stereo not drawn) [SQ109],Kd,[1],52 ± 11 µM
same,Kd,[2],3.4 ± 0.3 µM
same,Kd,[3],41 ± 3 µM
